A word on the IC50: it is the concentration that inhibits the measured activity by half. One may read the half-life as the time needed for the level to fall by half in the phase considered. The term Kd denotes the concentration at which binding is half-saturated. Read a low Kd as a tighter complex.

The test system of series [1] is HeLa cells. The experiment in a line: Cell viability assay (CellTiter-Glo, ATP) and DIC imaging, cytotoxicity. Type of series: cell-based. The conditions noted are these: 10 μM, 2 hours; DIC channel and ATP assay. As to the method: FIG. 8. (a) Confocal images of fixed HeLa cells after treatment with 10 μM of fluorescein-conjugated peptides for 2 hours. Scale bar=50 μm. (b) Cell viability assay using the CellTiter-Glo reagent.
Cell Viability Assay. HeLa cells were seeded into an opaque 96-well plate at a density of 1×10^4 per well in 100 μL DMEM medium supplemented with 10% FBS and the cells were allowed to grow in a 37° C. 5% CO2 incubator for 48 hrs to reach confluency of around 80%. Prior to the compound treatment, the medium was replaced with serum-free medium and the cells were incubated for 30 minutes. Appropriate amounts of peptides (1 mM in DMSO) were then added to obtain a final concentration of 10 μM and the cells were incubated at 37° C. for 2 hours. Afterwards, the plate was allowed to stand at room temperature for 30 minutes before 100 μL of Cell-Titer Glow reagent (Promega) was added. The plate was incubated at room temperature for 10 minutes. The luminescence signals were recorded with an FLX 800 luminescence plate reader (BioTek). The plotted data represented the average of the readings from 4 separate wells.

The test system of series [2] is HeLa cells. Nature of the series: FACS analysis of cell permeability of fluorescein-conjugated peptides. Format: cell-based. The conditions noted are these: 10 μM fluorescein-conjugated peptide, 2 h. As for the experimental part:
FACS Analysis. HeLa Cells were cultured in DMEM medium supplemented with 10% fetal bovine serum in 6-well plate in a 37° C., 5% CO2 incubator to reach confluency of around 70%. The cells were then washed twice with PBS before switching to serum-free DMEM medium. After standing in the incubator for 30 minutes, appropriate amounts of peptides (1 mM in DMSO) were added to the culture plate to obtain a final peptide concentration of 10 μM. Cells were incubated at 37° C. for additional 2 hrs. Then the medium was removed and the cells were washed with PBS (3×) followed by treatment with trypsin to detach the cells. After a brief low-speed centrifugation, the HeLa cells were collected and re-suspended in PBS for the FACS analysis.
(In general: A flow cytometer gives signals particle by particle.)

For series [3], the target named is Mcl-1 (Mus musculus, UniProt P97287). The note with it: background literature; read-out: IC50 against Mcl-1; cited from earlier work.
Mcl-1 (Mus musculus, UniProt P97287), sequence (P97287 152-308 limits assumed): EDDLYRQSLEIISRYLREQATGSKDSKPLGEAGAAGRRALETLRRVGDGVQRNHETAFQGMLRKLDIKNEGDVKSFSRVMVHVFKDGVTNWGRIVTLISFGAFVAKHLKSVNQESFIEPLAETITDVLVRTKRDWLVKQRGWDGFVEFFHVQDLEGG
Series [4] concerns the target GST-Mcl-1 (Homo sapiens, UniProt Q07820). Nature of the series: Competitive fluorescence polarization assay. Type of series: binding. The conditions noted are these: for IC50: Noxa peptides, three repeats ± SD, read-out: FP, IC50. As for the experimental part:
Competitive Florescence Polarization Assay. The binding affinity of the Noxa peptides toward GST-Mcl-1 was determined in a competitive fluorescence polarization assay with the fluorescein-labeled Bak or Bim. Briefly, fluorescein-labeled Bak was incubated with GST-Mcl-1 in a binding buffer (PBS, 0.005% Tween-20, pH7.4) at room temperature in a 96-well microtiter plate. […] The reading was repeated at various time points to ensure that the competition has reached equilibrium.
A general note: Polarisation of emitted light reports the rotation of a fluorescent probe.

Series [5] has as its target chymotrypsin (Bos taurus, UniProt P00766). The experiment in a line: Chymotrypsin proteolytic stability assay. The conditions noted are these: cattle (bovine), chymotrypsin (Type II, Sigma) in NH4HCO3 buffer, pH 8.
Procedure: Proteolytic stability of the linear and stapled Noxa peptides against trypsin (Type IX-S, 13,000-20,000 unit/mg, Sigma) and chymotrypsin (Type II, 40 unit/mg, Sigma). To a solution of 400 μL of 0.25 mM peptide in NH4HCO3 buffer, pH 8.0, was added 80 μL trypsin (5 μg/mL) or chymotrypsin (25 μg/mL), and the resulting solution was incubated at 37° C. At the indicated times, 40 μL of the solution was transferred to 40 μL trifluoroacetic acid to quench the reaction. The samples were analyzed by reverse-phase HPLC using benzophenone as an injection control.
Series [6] in a line: Circular dichroism, percent helicity. Type of series: physicochemical. The note with it: compared to the linear NoxaBH3 peptide, 50 μM in 20% ACN/H2O. As to the method: FIG. 12. […] The peptides were dissolved in 20% ACN/H2O for a final concentration of 50 μM.
Circular Dichroism Study. […] The spectra were recorded in the wavelength range of 190-250 nm and averaged over 3 scans with a resolution of 0.5 nm, a bandwidth of 1.0 nm and a response time of 4 s. The sensitivity and the speed of the spectrometer were set to 100 mdeg and 50 nm/min, respectively. All peptides were dissolved in 20% acetonitrile/H2O to reach final concentration of 50 μM.
Background: CD spectra are sensitive to the conformation of chiral molecules.

Series [7] deals with Mcl-1 (Homo sapiens, UniProt Q07820). Nature of the series: ELISA of cross-linked Noxa peptides. Format: binding.
Mcl-1 (Homo sapiens, UniProt Q07820), sequence (Q07820 whole entry, species assumed): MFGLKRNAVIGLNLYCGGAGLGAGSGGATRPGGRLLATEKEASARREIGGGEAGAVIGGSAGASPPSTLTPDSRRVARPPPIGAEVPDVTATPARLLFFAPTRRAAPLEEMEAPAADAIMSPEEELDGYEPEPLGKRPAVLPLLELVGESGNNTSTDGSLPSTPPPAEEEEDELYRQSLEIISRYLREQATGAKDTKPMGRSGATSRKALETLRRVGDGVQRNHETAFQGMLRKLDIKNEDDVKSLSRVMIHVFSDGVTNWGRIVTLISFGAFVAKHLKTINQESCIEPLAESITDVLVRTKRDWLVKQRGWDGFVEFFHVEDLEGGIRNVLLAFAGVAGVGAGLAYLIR
The target of series [8] is T1, full-length human MDMX (GST-MDMX) (Homo sapiens, UniProt O15151).
T1 construct: GST-MDM2 and GST-MDMX containing full-length human MDM2 and MDMX; made in house; host or cells: Escherichia coli
T1 sequence (O15151 1-490): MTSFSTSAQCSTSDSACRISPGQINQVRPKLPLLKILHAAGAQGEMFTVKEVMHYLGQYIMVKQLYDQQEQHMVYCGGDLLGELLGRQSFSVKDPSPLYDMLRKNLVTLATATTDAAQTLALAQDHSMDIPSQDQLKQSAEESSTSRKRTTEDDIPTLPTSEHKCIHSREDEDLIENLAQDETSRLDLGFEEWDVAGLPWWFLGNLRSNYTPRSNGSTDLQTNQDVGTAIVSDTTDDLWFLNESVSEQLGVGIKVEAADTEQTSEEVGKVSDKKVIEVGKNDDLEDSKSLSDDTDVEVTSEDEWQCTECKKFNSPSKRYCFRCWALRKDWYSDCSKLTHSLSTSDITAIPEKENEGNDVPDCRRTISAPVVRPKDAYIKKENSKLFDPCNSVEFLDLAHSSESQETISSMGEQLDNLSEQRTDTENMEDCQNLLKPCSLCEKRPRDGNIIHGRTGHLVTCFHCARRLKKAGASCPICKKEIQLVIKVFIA
Nature of the series: ELISA, inhibition of p53-MDMX interaction. Type of series: binding. The note with it: relative to linear counterpart 3. From the text: FIG. 10. ELISA data of the cross-linked PDI analogs. The experiments were repeated three times and the resulting data were plotted with GraphPad Prism 5.0 to derive the average IC50 values along with standard deviations.
ELISA Assay. GST-MDM2 and GST-MDMX containing full-length human MDM2 and MDMX and His6-tagged human p53 were expressed in Escherichia coli and purified by glutathione agarose and Ni^2+-nitrilotriacetic acid beads, respectively, under non-denaturing conditions. Microtiter plates were coated with 2.5 μg/ml His6-p53 in PBS buffer for 16 hours. After washing with PBS containing 0.1% Tween-20 (PBST), the plates were blocked with PBST containing 5% nonfat dry milk (PBSTM) for 30 minutes. Peptides were dissolved in DMSO. GST-MDM2 and MDMX (5 μg/ml) were mixed with peptides in PBSMT containing 10% glycerol and 10 mM dithiolthreitol prior to their additions to the wells at the specified concentrations. The incubation was allowed to proceed for 1 hour at room temperature before the plates were washed with PBST. […] The plates were developed by incubation with TMB peroxidase substrate (KPL, Gaithersburg, Md.) and measured by absorbance at 450 nm. The data was analyzed with the Origin 6.0 software. […]

Series [9] deals with GST-Bcl-xL (Homo sapiens, UniProt Q07817). The experiment in a line: FP binding affinity of fluorescein-labeled peptides, Bcl-xL.
GST-Bcl-xL, sequence (Q07817 whole entry): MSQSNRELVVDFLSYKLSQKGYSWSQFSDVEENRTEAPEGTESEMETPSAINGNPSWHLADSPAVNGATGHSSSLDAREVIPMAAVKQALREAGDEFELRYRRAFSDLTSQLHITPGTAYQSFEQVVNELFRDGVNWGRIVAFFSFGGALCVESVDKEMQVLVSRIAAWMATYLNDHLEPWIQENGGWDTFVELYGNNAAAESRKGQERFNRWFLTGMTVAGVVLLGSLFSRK

Numbered stars: 1 amine (or outer) side, 2 acyl side, 3 side chain; on linkers, the order of the positions; unused ones are H or OH. Bridge positions count the residues as written; N and C are the ends. Square brackets hold non-standard residues; d marks the D form. Ends that are not written are not given here. Peptide text beside a SMILES is read from it. BMA = bismethylene aryl moiety linked through two thioether bonds; CH2(3,3'-bipyridine-6,6')CH2 = c1cc(C[*:1])ncc1-c1ccc(C[*:2])nc1; Biphenyl(4,4'-CH2)2 = c1cc(-c2ccc(C[*:2])cc2)ccc1C[*:1]

GST-Mcl-1, sequence (Q07820 whole entry): as the sequence (Q07820 whole entry, species assumed) above

`CC(=O)N[C@@H](CC(C)C)C(=O)N[C@H](C(=O)N[C@@H](Cc1ccccc1)C(=O)N[C@H]1CSCc2ccc(cn2)-c2ccc(nc2)CSC[C@@H](C(=O)N[C@@H](CO)C(N)=O)NC(=O)[C@H](CC(C)C)NC(=O)[C@H](CCC(N)=O)NC(=O)[C@H](C)NC(=O)[C@H](Cc2c[nH]c3ccccc23)NC(=O)[C@H](Cc2ccc(O)cc2)NC(=O)[C@H](Cc2c[nH]cn2)NC1=O)[C@@H](C)O` [Peptide 1b, LTFC″HYWAQLC″S] (Ac-LTFCHYWAQLCS-NH2; linker 4-11 via CH2(3,3'-bipyridine-6,6')CH2; C-terminus assumed): the cytotoxicity result in [1] is “did not show any cytotoxicity”. For the same compound, the “increase in mean fluorescence by Bpy cross-linking” value in [2] (over linear counterpart) was approximately 6 fold.

In the case of “NoxaA-(16-41): BH3 peptide derived from mouse Noxa (RAELPPEFAAQLRKIGDKVYCTWSAP; UniProt Q9JM54 16-41, looked up, fragment)”, in series [3], the IC50 is 87 nM. For `CC[C@H](C)[C@@H]1NC(=O)[C@H](CCCNC(=N)N)NC(=O)[C@H](CCCNC(=N)N)NC(=O)[C@H](CC(C)C)NC(=O)[C@@H](NC(=O)[C@H](C)NC(=O)[C@H](C)NC(C)=O)CSCc2ccc(cn2)-c2ccc(nc2)CSC[C@@H](C(=O)N[C@H](C(=O)N[C@@H](CC(N)=O)C(=O)N[C@@H](CC(C)C)C(=O)N[C@@H](CCCNC(=N)N)C(=O)N[C@@H](CCC(N)=O)C(=O)N[C@@H](CCCCN)C(=O)N[C@@H](CC(C)C)C(=O)N[C@@H](CC(C)C)C(=O)N[C@@H](CC(N)=O)C(N)=O)C(C)C)NC(=O)[C@H](CC(=O)O)NC(=O)CNC1=O` [Peptide 5b], the IC50 in series [4] turned out to be 45 ± 9 nM; in series [7] it was 25 nM. The compound further registered a half-life at 0.208 mM in series [5] of 22 min. In [6], the “enhancement in percent helicity” value is “roughly 2 fold”.

For “NoxaB-(68-93): BH3 peptide derived from mouse Noxa (PADLKDECAQLRRIGDKVNLRQKLLN; UniProt Q9JM54 68-93, looked up, fragment)”, in series [3], the IC50 was 109 nM. Regarding “LTFCRYWARLCS (LTFCRYWARLCS-NH2; linker 4-11 via BMA (inferred); not fully specified) [Peptide 2, linear arginine-substituted dicysteine PDI analog]”, in [2] (compared to charge-neutral counterpart), the “increase in mean fluorescence / permeability by arginine substitution” value was determined as 2.5 fold. `CC(=O)N[C@@H](CC(C)C)C(=O)N[C@H](C(=O)N[C@@H](Cc1ccccc1)C(=O)N[C@@H](CS)C(=O)N[C@@H](Cc1c[nH]cn1)C(=O)N[C@@H](Cc1ccc(O)cc1)C(=O)N[C@@H](Cc1c[nH]c2ccccc12)C(=O)N[C@@H](C)C(=O)N[C@@H](CCC(N)=O)C(=O)N[C@@H](CC(C)C)C(=O)N[C@@H](CS)C(=O)N[C@@H](CO)C(N)=O)[C@@H](C)O` [Peptide 1] (Ac-LTFCHYWAQLCS-NH2): the cell penetration entry in [2] (relative to DMSO control) is listed as “minimal cell penetration”. On to `CC(=O)N[C@@H](CC(C)C)C(=O)N[C@H](C(=O)N[C@@H](Cc1ccccc1)C(=O)N[C@@H]1CSCc2ccc(cc2)-c2ccc(cc2)CSC[C@@H](C(=O)N[C@@H](CO)C(N)=O)NC(=O)[C@H](CC(C)C)NC(=O)[C@H](CCC(N)=O)NC(=O)[C@H](C)NC(=O)[C@H](Cc2c[nH]c3ccccc23)NC(=O)[C@H](Cc2ccc(O)cc2)NC(=O)[C@H](Cc2c[nH]cn2)NC1=O)[C@@H](C)O` [Peptide 3a, LTFc′HYWAQLC′S] (Ac-LTF[dC]HYWAQLCS-NH2; linker 4-11 via Biphenyl(4,4'-CH2)2), for which the “increase in MDMX activity” value in series [8] was 15 fold. `CC[C@H](C)[C@H](NC(=O)[C@H](CCCNC(=N)N)NC(=O)[C@H](CCCNC(=N)N)NC(=O)[C@H](CC(C)C)NC(=O)[C@H](CCC(N)=O)NC(=O)[C@H](C)NC(=O)[C@H](C)NC(=O)CCCCCNC(=S)Nc1ccc2c(c1)C(=O)OC21c2ccc(O)cc2Oc2cc(O)ccc21)C(=O)NCC(=O)N[C@@H](CC(=O)O)C(=O)N[C@@H](CCCCN)C(=O)N[C@H](C(=O)N[C@@H](CC(N)=O)C(=O)N[C@@H](CC(C)C)C(=O)N[C@@H](CCCNC(=N)N)C(=O)N[C@@H](CCC(N)=O)C(=O)N[C@@H](CCCCN)C(=O)N[C@@H](CC(C)C)C(=O)N[C@@H](CC(C)C)C(=O)N[C@@H](CC(N)=O)C(N)=O)C(C)C` [Fl-NoxaB^75-93-C75A]: the Kd in series [9] was more than 2000 nM. Consider `CC[C@H](C)[C@@H]1NC(=O)[C@H](CCCNC(=N)N)NC(=O)[C@H](CCCNC(=N)N)NC(=O)[C@H](CC(C)C)NC(=O)[C@@H](NC(=O)[C@H](C)NC(=O)[C@H](C)NC(C)=O)CSCc2ccc(cc2)-c2ccc(cc2)CSC[C@@H](C(=O)N[C@H](C(=O)N[C@@H](CC(N)=O)C(=O)N[C@@H](CC(C)C)C(=O)N[C@@H](CCCNC(=N)N)C(=O)N[C@@H](CCC(N)=O)C(=O)N[C@@H](CCCCN)C(=O)N[C@@H](CC(C)C)C(=O)N[C@@H](CC(C)C)C(=O)N[C@@H](CC(N)=O)C(N)=O)C(C)C)NC(=O)[C@H](CC(=O)O)NC(=O)CNC1=O` [Peptide 5a], for which the results for the IC50 in series [4] and in series [7] were 18 ± 6 nM and 75 nM, respectively. The “increase in activity in FPA” value in series [4] (compared to the parent linear peptide) was determined as 67 fold. For the same compound, the “enhancement in percent helicity” value in series [6] is recorded as “roughly 2 fold”.

The values are drawn from patent US9029332B2, “Cross-linked peptides and proteins, methods of making same, and uses thereof” (The Research Foundation for The State University of New York, priority 2010, dated 2015).
